From BigSolDB 2.1

CN(C)/C=C/C(=O)c1cccnc1
solubility (mole fraction)
Conditions | in 1,4-dioxane | in DMF | in THF | in acetone | in cyclohexane | in ethyl acetate | in methanol | in n-propanol
278.15 K | – | 0.0897 | 0.021 | 0.00872 | – | 0.0131 | 0.0255 | 0.0185
283.15 K | – | 0.112 | 0.0216 | 0.00917 | 0.00098 | 0.014 | 0.0278 | 0.0207
288.15 K | 0.0331 | 0.142 | 0.0225 | 0.00987 | 0.00114 | 0.0152 | 0.0304 | 0.0233
293.15 K | 0.0357 | 0.175 | 0.0239 | 0.0108 | 0.00147 | 0.0163 | 0.034 | 0.0261
298.15 K | 0.0388 | 0.209 | 0.0257 | 0.0117 | 0.00183 | 0.018 | 0.0379 | 0.0298
303.15 K | 0.0427 | 0.249 | 0.0279 | 0.0127 | 0.00228 | 0.02 | 0.0427 | 0.0331
308.15 K | 0.048 | 0.293 | 0.0304 | 0.0138 | 0.00284 | 0.0228 | 0.0476 | 0.0371
313.15 K | 0.054 | 0.348 | 0.033 | 0.0149 | 0.0034 | 0.0259 | 0.0533 | 0.0408
318.15 K | 0.061 | 0.408 | 0.0358 | 0.0164 | 0.00408 | 0.0295 | 0.0588 | 0.0465
323.15 K | 0.0692 | 0.482 | 0.0391 | 0.0178 | 0.00493 | 0.0338 | 0.0648 | 0.0529
328.15 K | 0.0779 | 0.588 | 0.0428 | 0.0197 | 0.0061 | 0.0382 | 0.0715 | 0.0604
